Patent publication US20050153870A1, “Medicinal composition for diagnosis, prevention, or therapy of multiple risk factor syndrome” (priority 2002, published 2005)
Marks after values point to notes of the source that are not given here.

Tests used:
[1] = test system: Rat; experiment: Glucogenesis in the liver; format: in vivo; conditions: perorally
Excerpt: Compounds of this series suppresses hepatic glucogenesis which is induced by administration of dexamethazon to a rat. For this reason, it antagonizes the action of glucocorticoid in vivo. The compound further has an effect of suppressing steroid diabetes characterized by polydipsia and polyurea and urine sugar excretion induced by administering cortisol to a rat. […] These facts strongly support that compounds of this series is useful in preventing and/or treating visceral fat syndrome.

[2] = test system: hypercholesterolemia patients; experiment: Clinical test I; format: in vivo, human; conditions: for Fasting blood sugar (FBS) level: 5 patients with high blood sugar
Excerpt: The participants consisted of 9 Caucasian males and 7 Caucasian females. They participated in Clinical test I on a voluntary basis after they signed informed consent for clinical test participation, which was proposed by a medical institution based on the Helsinki declaration.
Their ages were 55 years old in average and ranging from 40 to 82 years old. Their average body weigh was 70.2±13.57 kg (standard deviation).
All participants took dietary therapy for treating hypercholesterolemia. Since various medicaments were administered, the period of 8 weeks, prior to Clinical test I, was provided to stop taking all pills, thereby washing out effects of medicaments. During the period of the Clinical test I, it was not allowed to take any other medicament together with a test medicament. Patients with type II diabetes were excluded from the participants; however, 5 patients with a high blood sugar level were included in the participants. Since they were not diagnosed as diabetes, they were allowed to participate in the test. Of 16 participants, 10 patients had hypertension and 4 patients had borderline hypertension defined by WHO. Only 2 patients had normal blood pressure.

[3] = in vivo; cited from earlier work
[4] = test system: C57BL/Ksj-db/db mice; experiment: AS-6 in feed to db/db mice (Example 4); format: in vivo, mouse; conditions: 0.1% in feed, 1 week
Procedure: C57BL/Ksj-db/db mice, which were model animals of multiple risk factor syndrome, were raised for a week with powered feed containing an ascochlorin derivative, 4-O-carboxymethylascochlorin (AS-6), in a content of 0.1%. Thereafter, the weight, blood sugar, blood insulin, and blood neutral fat were measured.

[5] = Borderline hypertensive group, 4 patients, 10th week, Placebo period after 8 weeks of medication
[6] = Borderline hypertensive group, 4 patients, 12th week, Placebo period after 8 weeks of medication
[7] = Hypertension group, 10 patients, 10th week, Placebo period after 8 weeks of medication
[8] = Hypertension group, 10 patients, 12th week, Placebo period after 8 weeks of medication

COc1c(Cl)c(C)c(C=O)c(O)c1C/C=C(C)/C=C/[C@@]1(C)[C@H](C)CCC(=O)[C@@H]1C [4-O-methylascochlorin]
glucogenesis performed in the liver [1]: performed in the liver is suppressed.
normal blood pressure ([2]; 2 patients of normal blood pressure): does not affect normal blood pressure
blood sugar levels ([2]; 5 cases exhibiting high blood sugar): brought back to normal levels
Fasting blood sugar (FBS) level ([2]; 1st week, 0.5 mg/kg, before medication 132.4 ± 16.0): 100.0 ± 11.0 mg/dL
Fasting blood sugar (FBS) level ([2]; 2nd week, 1.0 mg/kg, before medication 132.4 ± 16.0): 102.0 ± 4.0 mg/dL
Fasting blood sugar (FBS) level ([2]; 3rd week, 2.0 mg/kg, before medication 132.4 ± 16.0): 103.6 ± 12.1 mg/dL
Fasting blood sugar (FBS) level ([2]; 4th week, 4.0 mg/kg, before medication 132.4 ± 16.0): 103.2 ± 11.7 mg/dL
Fasting blood sugar (FBS) level ([2]; 6th week, 8.0 mg/kg, before medication 132.4 ± 16.0): 98.0 ± 4.6 mg/dL
Fasting blood sugar (FBS) level ([2]; 8th week, 16.0 mg/kg, before medication 132.4 ± 16.0): 93.3 ± 6.1 mg/dL
Fasting blood sugar (FBS) level ([2]; 10th week, Placebo period after 8 weeks of medication): 93.5 ± 6.4 mg/dL
Fasting blood sugar (FBS) level ([2]; 12th week, Placebo period after 8 weeks of medication): 100.5 ± 11.6 mg/dL
Blood sugar level ([2]; 5 patients, 6th week, 8 mg/kg): completely returns to a normal level
Total serum cholesterol ([2]; 6th week, 16 folds the amount of 0.5 mg/kg): decreased to the upper limit of the normal range
decrease of body weight compared to before medication ([2]; 8 weeks after the initiation of medication, P<0.001): 0.9 kg
blood pressure of the systolic period and the diastolic period ([2]; 10 hypertensive patients, 8th week): decreased both pressure values to normal levels
lowering of serum total cholesterol by medication ([2]; 16 hypercholesterolemia patients): ≥ 30%
Total serum cholesterol ([2]; 16 hypercholesterolemia patients, 1st week, 0.5 mg/kg, before medication 342.0 ± 61.0): 272.6 ± 62.7 mg/dL
Total serum cholesterol ([2]; 16 hypercholesterolemia patients, 2nd week, 1.0 mg/kg, before medication 342.0 ± 61.0): 266.5 ± 66.7 mg/dL
Total serum cholesterol ([2]; 16 hypercholesterolemia patients, 3rd week, 2.0 mg/kg, before medication 342.0 ± 61.0): 268.7 ± 66.0 mg/dL
Total serum cholesterol ([2]; 16 hypercholesterolemia patients, 4th week, 4.0 mg/kg, before medication 342.0 ± 61.0): 254.2 ± 65.7 mg/dL
Total serum cholesterol ([2]; 16 hypercholesterolemia patients, 6th week, 8.0 mg/kg, before medication 342.0 ± 61.0): 217.4 ± 58.8 mg/dL
Total serum cholesterol ([2]; 16 hypercholesterolemia patients, 8th week, 16.0 mg/kg, before medication 342.0 ± 61.0): 229.5 ± 61.9 mg/dL
Total serum cholesterol ([2]; 16 hypercholesterolemia patients, 10th week, Placebo period after 8 weeks of medication): 255.9 ± 57.6 mg/dL
Total serum cholesterol ([2]; 16 hypercholesterolemia patients, 12th week, Placebo period after 8 weeks of medication): 264.0 ± 57.5 mg/dL
abnormality in the serum biological test, hematocyte test, and urine test ([2]; 16 patients, 12 weeks): No abnormality ascribed to medication
side effect ([2]; 16 patients, 12 weeks, 0.5 to 16.0 mg/kg, not so severe, medication continued): one case with light eruption and one case with dizziness
Diastolic pressure ([2]; Borderline hypertensive group, 4 patients, 1st week, 0.5 mg/kg, before medication 87.1 ± 2.7): 82.1 ± 3.9 mmHg
Systolic pressure ([2]; Borderline hypertensive group, 4 patients, 1st week, 0.5 mg/kg, before medication 149.3 ± 7.9): 133.6 ± 9.0 mmHg
Diastolic pressure ([2]; Borderline hypertensive group, 4 patients, 2nd week, 1.0 mg/kg, before medication 87.1 ± 2.7): 81.4 ± 4.8 mmHg
Systolic pressure ([2]; Borderline hypertensive group, 4 patients, 2nd week, 1.0 mg/kg, before medication 149.3 ± 7.9): 134.3 ± 6.7 mmHg
Diastolic pressure ([2]; Borderline hypertensive group, 4 patients, 3rd week, 2.0 mg/kg, before medication 87.1 ± 2.7): 81.4 ± 2.4 mmHg
Systolic pressure ([2]; Borderline hypertensive group, 4 patients, 3rd week, 2.0 mg/kg, before medication 149.3 ± 7.9): 134.3 ± 9.3 mmHg
Diastolic pressure ([2]; Borderline hypertensive group, 4 patients, 4th week, 4.0 mg/kg, before medication 87.1 ± 2.7): 80.7 ± 3.5 mmHg
Systolic pressure ([2]; Borderline hypertensive group, 4 patients, 4th week, 4.0 mg/kg, before medication 149.3 ± 7.9): 130.7 ± 8.9 mmHg
Diastolic pressure ([2]; Borderline hypertensive group, 4 patients, 6th week, 8.0 mg/kg, before medication 87.1 ± 2.7): 78.6 ± 3.8 mmHg
Systolic pressure ([2]; Borderline hypertensive group, 4 patients, 6th week, 8.0 mg/kg, before medication 149.3 ± 7.9): 130.7 ± 8.9 mmHg
Diastolic pressure ([2]; Borderline hypertensive group, 4 patients, 8th week, 16.0 mg/kg, before medication 87.1 ± 2.7): 77.9 ± 3.9 mmHg
Systolic pressure ([2]; Borderline hypertensive group, 4 patients, 8th week, 16.0 mg/kg, before medication 149.3 ± 7.9): 130.0 ± 8.2 mmHg
Diastolic pressure [2, 5]: 78.6 ± 4.8 mmHg
Systolic pressure [2, 5]: 130.7 ± 9.3 mmHg
Diastolic pressure [2, 6]: 78.6 ± 4.8 mmHg
Systolic pressure [2, 6]: 132.1 ± 10.4 mmHg
Diastolic pressure ([2]; Hypertension group, 10 patients, 1st week, 0.5 mg/kg, before medication 91.0 ± 7.7): 83.5 ± 4.7 mmHg
Systolic pressure ([2]; Hypertension group, 10 patients, 1st week, 0.5 mg/kg, before medication 161.5 ± 21.1): 143.5 ± 28.5 mmHg
Diastolic pressure ([2]; Hypertension group, 10 patients, 2nd week, 1.0 mg/kg, before medication 91.0 ± 7.7): 83.0 ± 5.4 mmHg
Systolic pressure ([2]; Hypertension group, 10 patients, 2nd week, 1.0 mg/kg, before medication 161.5 ± 21.1): 147.5 ± 28.5 mmHg
Diastolic pressure ([2]; Hypertension group, 10 patients, 3rd week, 2.0 mg/kg, before medication 91.0 ± 7.7): 84.5 ± 6.0 mmHg
Systolic pressure ([2]; Hypertension group, 10 patients, 3rd week, 2.0 mg/kg, before medication 161.5 ± 21.1): 147.5 ± 26.1 mmHg
Diastolic pressure ([2]; Hypertension group, 10 patients, 4th week, 4.0 mg/kg, before medication 91.0 ± 7.7): 85.5 ± 9.44 mmHg
Systolic pressure ([2]; Hypertension group, 10 patients, 4th week, 4.0 mg/kg, before medication 161.5 ± 21.1): 148.5 ± 26.8 mmHg
Diastolic pressure ([2]; Hypertension group, 10 patients, 6th week, 8.0 mg/kg, before medication 91.0 ± 7.7): 83.5 ± 9.44 mmHg
Systolic pressure ([2]; Hypertension group, 10 patients, 6th week, 8.0 mg/kg, before medication 161.5 ± 21.1): 144.5 ± 29.8 mmHg
Diastolic pressure ([2]; Hypertension group, 10 patients, 8th week, 16.0 mg/kg, before medication 91.0 ± 7.7): 78.1 ± 3.7 mmHg
Systolic pressure ([2]; Hypertension group, 10 patients, 8th week, 16.0 mg/kg, before medication 161.5 ± 21.1): 130.0 ± 7.6 mmHg
Diastolic pressure [2, 7]: 83.5 ± 8.8 mmHg
Systolic pressure [2, 7]: 145.5 ± 26.3 mmHg
Diastolic pressure [2, 8]: 84.0 ± 9.7 mmHg
Systolic pressure [2, 8]: 151.5 ± 32.4 mmHg
blood pressure of the hypertension group and borderline hypertension group ([2]; medication for 8 weeks): dropped to the upper limit of a normal range
drop of total serum cholesterol, average ([2]; one week after 0.5 mg/kg perorally): 70 mg/dL
Serum neutral fat ([2]; ratio of serum neutral fat/serum total cholesterol 1.2 or less (hyperlipemia type IIa)): significantly decreased
Serum neutral fat ([2]; ratio of serum neutral fat/serum total cholesterol 1.2 or more (hyperlipemia type IIb and type IV)): a significant decrease of serum neutral fat was not observed
distribution of the isotope-labeled compound [3]: widely and specifically distributed in the adipose tissue as well as in the adrenal gland
synthesis of steroid hormones (glucocorticoid+mineral corticoid) of adrenal cortex [3]: regulates synthesis of steroid hormones

CC(C=CC1(C)C(C)CCC(=O)C1C)=CCc1c(O)c(C=O)c(C)c(Cl)c1OCC(=O)O (centres unmarked) [AS-6, 4-O-carboxymethylascochlorin]
Blood sugar, change vs db/db control group [4]: −30.0%**
Body weight, change vs db/db control group [4]: ns
Cholesterol, change vs db/db control group [4]: ns
Free fatty acid, change vs db/db control group [4]: −21.1%**
Insulin, change vs db/db control group [4]: ns
Neutral fat, change vs db/db control group [4]: −38.3%**
Free fatty acid ([4]; db/db control 1.164 ± 0.03): 0.918 ± 0.1 mEq/L
Insulin ([4]; db/db control 31.0 ± 3.6): 34.6 ± 3.5 μU/mL
Body weight ([4]; db/db control 52.9 ± 0.8): 56.3 ± 1.2 g
Cholesterol ([4]; db/db control 109.9 ± 3.3): 114.4 ± 4.3 mg/dL
Neutral fat ([4]; db/db control 378.5 ± 19.3): 223.5 ± 17.7 mg/dL
blood sugar ([4]; db/db control 637.3 ± 28.9): 445.8 ± 32.5 mg/dL
blood sugar, blood free fatty acid, and blood neutral fat ([4]; db/db mice): significantly reduced
